Patent US20260364079A1 (Principia Biopharma Inc., priority 2022, published 2026)

What was measured:
[1] = target: BTK (Homo sapiens, UniProt Q06187); conditions: healthy volunteers, cited from earlier work
[2] = Phase 2 trial; cited from earlier work
[3] = test system: 251 kinases; experiment: broad kinase enzyme inhibition panel; type: biochemical; conditions: 1 μM
[4] = patients with chronic lymphatic leukemia; cited from earlier work
[5] = in vivo; cited from earlier work

Chain of BTK (Q06187 whole entry): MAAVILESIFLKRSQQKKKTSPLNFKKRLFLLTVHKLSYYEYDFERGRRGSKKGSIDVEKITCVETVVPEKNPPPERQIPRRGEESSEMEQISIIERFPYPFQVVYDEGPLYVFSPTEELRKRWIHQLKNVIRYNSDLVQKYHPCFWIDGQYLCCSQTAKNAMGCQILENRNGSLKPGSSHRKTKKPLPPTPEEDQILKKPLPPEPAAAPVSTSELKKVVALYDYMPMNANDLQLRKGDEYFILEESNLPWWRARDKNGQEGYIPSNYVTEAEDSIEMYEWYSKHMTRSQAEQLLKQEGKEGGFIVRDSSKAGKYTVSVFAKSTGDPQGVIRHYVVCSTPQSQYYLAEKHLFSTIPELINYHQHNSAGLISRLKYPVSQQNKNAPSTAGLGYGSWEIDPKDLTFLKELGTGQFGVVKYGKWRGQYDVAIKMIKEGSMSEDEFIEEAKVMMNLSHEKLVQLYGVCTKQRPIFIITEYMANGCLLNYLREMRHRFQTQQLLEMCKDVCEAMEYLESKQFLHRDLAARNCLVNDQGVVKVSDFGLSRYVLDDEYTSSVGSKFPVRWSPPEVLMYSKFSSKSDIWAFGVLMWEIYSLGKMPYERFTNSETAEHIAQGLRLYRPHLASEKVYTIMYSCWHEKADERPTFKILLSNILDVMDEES

SMILES: C=CC(=O)Nc1cccc(Nc2nc(Nc3ccc(OCCOC)cc3)ncc2F)c1 [CC-292]
- tolerability ([1]; doses with 100% occupancy): well tolerated
- occupancy of the BTK enzyme [1]: 100%

SMILES: C=CC(=O)N1CCC(CNc2ncnc(N)c2-c2ccc(Oc3ccccc3)cc2)CC1 [evobrutinib]
- efficacy in multiple sclerosis [2]: demonstrated efficacy for multiple sclerosis

SMILES: C=CC(=O)N1CCC[C@@H](n2nc(-c3ccc(Oc4ccccc4)cc3)c3c(N)ncnc32)C1 [ibrutinib]
- number of kinases inhibited [3]: 21 kinases
- sequential episodes of severe autoimmune hemolytic anemia and ITP [4]: ceased after initiation of treatment with ibrutinib
- activity in other hematological malignancies [5]: demonstrated activity in other hematological malignancies
